Where two headings read alike, the source gives them in different places.
How the values were obtained:
[1] = test system: RAN translation of (G4C2)66-No ATG-GFP in HEK293T cells; test: Cell-based assay of RAN translation inhibition (GFP/mCherry reporter); conditions: Homo sapiens, HEK-293T, read-out: RANT IC50
[2] = target: Biotin-labeled RNA (target RNA); test: BLI affinity measurement (ForteBio Octet RED384); format: binding; conditions: Table G
[3] = test system: cultured cells and induced neurons; conditions: cited from earlier work
r(G4C2)^exp = conditions: background statement; cited from earlier work

| Compound | IC50 ([1]; Table G, HEK293T) [µM] | Kd [2] [nM] | IC50 [1] [µM] | inhibition of RAN translation and foci formation [3] | binding to r(G4C2)exp (r(G4C2)^exp) |
| --- | --- | --- | --- | --- | --- |
| Cc1c2ccncc2cc2c3cc(OC[C@H](C)NC(N)=O)ccc3n(C)c12 [Compound 273, (S)-1-(1-((5,6-dimethyl-6H-pyrido[4,3-b]carbazol-9-yl)oxy)propan-2-yl)urea] | 0.39 | 140 | – | – | – |
| Cc1c2ccncc2cc2c3cc(Oc4cccnc4)ccc3n(C)c12 [Compound 311, 5,6-dimethyl-9-(pyridin-3-yloxy)-6H-pyrido[4,3-b]carbazole] | – | 2300 | 20 | – | – |
| Cc1c2ccncc2cc2c3cc(C(=O)NC[C@H](C)N)ccc3n(C)c12 [Compound 280, (S)—N-(2-aminopropyl)-5,6-dimethyl-6H-pyrido[4,3-b]carbazole-9-carboxamide] | 35 | 880 | – | – | – |
| Cc1c2ccnc(C(=O)N[C@H](C)CN(C)C)c2cc2c3cc(F)ccc3n(C)c12 [Compound 310, (R)—N-(1-(dimethylamino)propan-2-yl)-9-fluoro-5,6-dimethyl-6H-pyrido[4,3-b]carbazole-1-carboxamide] | 38 | 970 | – | – | – |
| Cc1c2ccncc2cc2c3cc(C(=O)N[C@H](C)C(N)=O)ccc3n(C)c12 [Compound 298, (R)—N-(1-amino-1-oxopropan-2-yl)-5,6-dimethyl-6H-pyrido[4,3-b]carbazole-9-carboxamide] | 1.4 | 6600 | – | – | – |
| Cc1c2ccncc2cc2c3cc(C(=O)N[C@H](C)CO)ccc3n(C)c12 [Compound 289, (R)—N-(1-hydroxypropan-2-yl)-5,6-dimethyl-6H-pyrido[4,3-b]carbazole-9-carboxamide] | 2.4 | 5000 | – | – | – |
| COCCN[C@@H](C)COc1ccc2c(c1)c1cc3cnccc3c(C)c1n2C [Compound 278, (2S)-1-(5,6-dimethylpyrido[4,3-b]carbazol-9-yl)oxy-N-(2-methoxyethyl)propan-2-amine] | 21 | 83 | – | – | – |
| Cc1c2ccncc2cc2c3cc(C(=O)N[C@H](C)CN)ccc3n(C)c12 [Compound 282, N-[(1R)-2-amino-1-methyl-ethyl]-5,6-dimethyl-pyrido[4,3-b] carbazole-9-carboxamide] | 0.67 | 140 | – | – | – |
| COC(C)(C)CNC(=O)c1ccc2c(c1)c1cc3cnccc3c(C)c1n2C [Compound 299, N-(2-methoxy-2-methylpropyl)-5,6-dimethyl-6H-pyrido[4,3-b]carbazole-9-carboxamide] | 3.8 | 240 | – | – | – |
| Cc1c2ccncc2cc2c3cc(OC[C@H](C)NCC(F)F)ccc3n(C)c12 [Compound 279, (2S)—N-(2,2-difluoroethyl)-1-(5,6-dimethylpyrido[4,3-b]carbazol-9-yl)oxy-propan-2-amine] | 2.4 | 250 | – | – | – |
| Cc1c2ccncc2cc2c3cc(C(=O)N[C@@H](C)CO)ccc3n(C)c12 [Compound 291, N-[(1S)-2-hydroxy-1-methyl-ethyl]-5,6-dimethyl-pyrido[4,3-b]carbazole-9-carboxamide] | 1.8 | 3800 | – | – | – |
| Cc1c2ccnc(C(=O)NCCN)c2cc2c3cc(F)ccc3n(C)c12 [Compound 308, N-(2-aminoethyl)-9-fluoro-5,6-dimethyl-6H-pyrido[4,3-b]carbazole-1-carboxamide] | > 100 | 560 | – | – | – |
| CCCN[C@@H](C)COc1ccc2c(c1)c1cc3cnccc3c(C)c1n2C [Compound 277, (2S)-1-(5,6-dimethylpyrido[4,3-b]carbazol-9-yl)oxy-N-propyl-propan-2-amine] | – | 20 | 1.5 | – | – |
| Cc1c2ccnc(C(=O)NCCN(C)C)c2cc2c3cc(F)c(F)cc3n(C)c12 [Compound 313, N-(2-(dimethylamino)ethyl)-8,9-difluoro-5,6-dimethyl-6H-pyrido[4,3-b]carbazole-1-carboxamide] | > 100 | 4700 | – | – | – |
| Cc1c2ccnc(C(=O)NCCN(C)C)c2cc2c3cc(F)ccc3n(C)c12 [Compound 315, N-(2-(dimethylamino)ethyl)-9-fluoro-5,6-dimethyl-6H-pyrido[4,3-b]carbazole-1-carboxamide] | > 100 | 11000 | – | – | – |
| Cc1c2ccncc2cc2c3ccccc3n(CC3=NCCN3)c12 [Compound 317, 6-((4,5-dihydro-1H-imidazol-2-yl)methyl)-5-methyl-6H-pyrido[4,3-b]carbazole] | 5 | 5000 | – | – | – |
| COc1ccc2c(c1)c1cc3cnccc3c(C)c1n2CCN1CCOCC1 [Compound 320, 4-(2-(9-methoxy-5-methyl-6H-pyrido[4,3-b]carbazol-6-yl)ethyl)morpholine] | – | 100000 | 1.9 | – | – |
| Cc1c2ccncc2cc2c3cc(OC[C@H](C)Nc4ccccn4)ccc3n(C)c12 [Compound 269, (S)—N-(1-((5,6-dimethyl-6H-pyrido[4,3-b]carbazol-9-yl)oxy)propan-2-yl)pyridin-2-amine] | > 100 | 1400 | – | – | – |
| COc1ccc2c(c1)c1cc3cnccc3c(C)c1n2CCN1CCCCC1 [Compound 316, 9-methoxy-5-methyl-6-(2-(piperidin-1-yl)ethyl)-6H-pyrido[4,3-b]carbazole] | – | 3400 | 10 | – | – |
| Cc1c2cc[n+](CCN3CCCCC3)cc2c(C)c2c1[nH]c1ccc(O)cc12 [Compound 1a] | – | – | – | inhibits RAN translation and foci formation | binds |
| Cc1c2ccncc2cc2c3cc(C(=O)NC[C@@H](C)O)ccc3n(C)c12 [Compound 285, (R)—N-(2-hydroxypropyl)-5,6-dimethyl-6H-pyrido[4,3-b]carbazole-9-carboxamide] | 0.9 | 120 | – | – | – |
| Cc1c2ccncc2cc2c3ccccc3n(CCN(C)C)c12 [Compound 312, N,N-dimethyl-2-(5-methyl-6H-pyrido[4,3-b]carbazol-6-yl)ethanamine] | – | 1300 | 7.4 | – | – |
| Cc1c2ccncc2cc2c3cc(OCCCN4CCCCC4)ccc3n(C)c12 [Compound 266, 5,6-dimethyl-9-(3-(piperidin-1-yl)propoxy)-6H-pyrido[4,3-b]carbazole] | 7.8 | 690 | – | – | – |
| CCN[C@@H](C)COc1ccc2c(c1)c1cc3cnccc3c(C)c1n2C [Compound 275, (2S)-1-(5,6-dimethylpyrido[4,3-b]carbazol-9-yl)oxy-N-ethyl-propan-2-amine] | 20 | 62 | – | – | – |
| Cc1c2ccnc(C(=O)N[C@H](C)CN(C)C)c2cc2c3cc(OCC(N)=O)ccc3n(C)c12 [Compound 270, 9-(2-amino-2-oxo-ethoxy)-N-[(1R)-2-(dimethylamino)-1-methyl-ethyl]-5,6-dimethyl-pyrido[4,3-b]carbazole-1-carboxamide] | 0.36 | 510 | – | – | – |
| Cc1c2ccncc2cc2c3ccccc3n(CCN3CCOCC3)c12 [Compound 319, 4-(2-(5-methyl-6H-pyrido[4,3-b]carbazol-6-yl)ethyl)morpholine] | – | 7800 | 12 | – | – |
| CC(=O)N[C@@H](C)COc1ccc2c(c1)c1cc3cnccc3c(C)c1n2C [Compound 272, (S)—N-(1-((5,6-dimethyl-6H-pyrido[4,3-b]carbazol-9-yl)oxy)propan-2-yl)acetamide] | 2 | 7700 | – | – | – |
| Cc1c2ccncc2cc2c3cc(OC[C@H]4CCCN4)cc(F)c3n(C)c12 [Compound 265, (R)-7-fluoro-5,6-dimethyl-9-(pyrrolidin-2-ylmethoxy)-6H-pyrido[4,3-b]carbazole] | > 100 | 720 | – | – | – |
| Cc1c2ccncc2cc2c3cc(C(=O)N[C@@H](C)CN)ccc3n(C)c12 [Compound 281, (S)—N-(1-aminopropan-2-yl)-5,6-dimethyl-6H-pyrido[4,3-b]carbazole-9-carboxamide] | 17 | 460 | – | – | – |

Source: patent US20240067639A1, “SMALL MOLECULES THAT TARGET THE RNA THAT CAUSES ALS” (EXPANSION THERAPEUTICS, INC., priority 2020, published 2024)
